Test results as given in US9676793B2, “Co-crystals of 5-amino-2-oxothiazolo[4,5-d]pyrimidin-3(2H)-yl-5-hydroxymethyl tetrahydrofuran-3-yl acetate and methods for preparing and using the same” (Hoffmann-La Roche Inc., priority 2014, dated 2017).
Like-named read-outs stand apart in the source and are kept apart here.

Key:
[1] = system: HBV; test: Indirect inhibition of HBV replication by conditioned media from stimulated PBMCs; assay type: cell-based, HBV (genotype D, strain ayw)
Procedure: (§1) TLR-7 agonists stimulate the production cytokines and chemokines from human PBMC's. Conditioned medium was obtained by contacting cultured PBMC's with DMSO (control) or 100 μM R06871765 (drug) was contacted with HBV infected HepaRGd cells.
HBV infected HepaRGd cells were incubated with various dilutions of conditioned media collected from PBMCs isolated from healthy donors—donor 70615 (graphs A-D) and donor 77726 (graphs E, F). The PBMC's from each donor were stimulated with either DMSO (graphs A, C, E) or 100 μM R06871765 (graphs B, D, F). […] Three experiments were performed. In the first experiment (FIGS. 4A, 4B), conditioned media from PBMCs (donor 70615) was first diluted 10-fold using differentiation media, and then serially diluted in 3-fold increments prior to addition of each of the diluted conditioned medium to HBV infected HepaRGd cells. In the second experiment (FIGS. 4C, 4D), conditioned media from PBMCs (donor 70615) was first diluted 5-fold using differentiation media, and then serially diluted in 5-fold increments prior to addition to HBV infected HepaRGd cells. In the third experiment (FIGS. 4E, 4F), conditioned media from PBMCs (donor 77726) was first diluted 5-fold using differentiation media, and then serially diluted in 5-fold increments prior to addition to HBV infected HepaRGd cells. The HBV replication inhibitory activity for control and R06871765 treated cells was determined by monitoring the levels of HBV DNA and HBsAg secreted in culture medium.

[2] = system: human PBMCs; test: Cytokine profiling of conditioned media from stimulated PBMCs; assay type: cell-based; details: no release with DMSO
Procedure: as §1
The anti-viral effect of conditioned medium obtained cultured PBMC's treated with R06871765 most likely is due to the release of cytokines and chemokines from PBMC's.

[3] = system: HBV infected HepaRGd cells; test: Cell viability by CellTiter-Glo, direct treatment; assay type: cell-based; details: for CC50: read-out: EC/CC50 (μM), Cell viability
[4] = Cell viability by CellTiter-Glo, direct treatment; assay type: cell-based; details: human; for cytotoxicity at 7 days, 0.82 μM / cytotoxicity at 7 days, 2.47 μM / cytotoxicity at 7 days, 7.41 μM / cytotoxicity at 7 days, 22.22 μM / cytotoxicity at 7 days, 66.67 μM / cytotoxicity at 7 days, 200 μM: read-out: Cell viability (% inhibition)
[5] = conditioned media of PBMCs stimulated with 100 μM
[6] = conditioned media of PBMCs stimulated with 100 μM, Feb. 28, 2013 donor 77726
[7] = conditioned media of PBMCs stimulated with 100 μM, Jan. 3, 2013 donor 70615
[8] = conditioned media of PBMCs stimulated with 100 μM, Nov. 12, 2012 donor 70615
[9] = stimulated PBMC conditioned media

Nc1nc2c(sc(=O)n2[C@@H]2O[C@H](CO)C[C@H]2O)c(=O)[nH]1 [R06871765]
EC50 converted fold dilution, HBV DNA secretion [1, 5]: 318 fold dilution | EC50 converted fold dilution, HBsAg secretion [1, 5]: 16 fold dilution | EC50 [log dilution], HBV DNA secretion [1, 6]: −2.1 log dilution | EC50 [log dilution], HBsAg secretion [1, 6]: −1.0 log dilution | EC50 [log dilution], HBV DNA secretion [1, 7]: −2.9 log dilution | EC50 [log dilution], HBsAg secretion [1, 7]: −1.4 log dilution | EC50 [log dilution], HBV DNA secretion [1, 8]: −2.5 log dilution | EC50 [log dilution], HBsAg secretion [1, 8]: <−1.0 log dilution | EC50 [log dilution], HBsAg secretion, Ave ± SD ([1]; conditioned media of PBMCs stimulated with 100 μM, average): −1.2 log dilution | EC50 [log dilution], HBV DNA secretion, Ave ± SD ([1]; conditioned media of PBMCs stimulated with 100 μM, average of three experiments): −2.5 ± 0.4 log dilution | average EC50 against HBV DNA [1, 9]: −2.5±0.4 log10 | average EC50 against HBV surface antigen (HBsAg) secretion [1, 9]: −1.2 log10 | release of IFN-α, IL-6, TNF-α and IP-10 from PBMCs [2]: induced release | CC50 ([3]; EXP ID 10/15/2012 AL): > 200 µM | CC50 ([3]; EXP ID 10/15/2012 VL): > 200 µM | maximum reduction in viability ([3]; highest concentration (200 μM)): about 17% | cytotoxicity at 7 days, 0.82 μM ([4]; EXP ID 10/15/2012 AL): -2.58% | cytotoxicity at 7 days, 0.82 μM ([4]; EXP ID 10/15/2012 VL): 3.23% | cytotoxicity at 7 days, 2.47 μM ([4]; EXP ID 10/15/2012 AL): -2.57% | cytotoxicity at 7 days, 2.47 μM ([4]; EXP ID 10/15/2012 VL): 0.54% | cytotoxicity at 7 days, 7.41 μM ([4]; EXP ID 10/15/2012 AL): -2.85% | cytotoxicity at 7 days, 7.41 μM ([4]; EXP ID 10/15/2012 VL): -1.5% | cytotoxicity at 7 days, 22.22 μM ([4]; EXP ID 10/15/2012 AL): -2.43% | cytotoxicity at 7 days, 22.22 μM ([4]; EXP ID 10/15/2012 VL): -1.37% | cytotoxicity at 7 days, 66.67 μM ([4]; EXP ID 10/15/2012 AL): 3.7% | cytotoxicity at 7 days, 66.67 μM ([4]; EXP ID 10/15/2012 VL): 7.34% | cytotoxicity at 7 days, 200 μM ([4]; EXP ID 10/15/2012 AL): 12.3% | cytotoxicity at 7 days, 200 μM ([4]; EXP ID 10/15/2012 VL): 22% | CC50 at 7 days ([4]; HBV infected HepaRGd cells): > 200 µM
